Experimental findings from US20050282743A1, “Molecular interactions in cells” (Arbor Vita Corporation, priority 2001, published 2005) are described below.

Ends that are not written are not given here. Peptide text beside a SMILES is read from it. * marks the point of attachment. Biotin = O=C1N[C@H]2[C@H](CS[C@H]2CCCCC(=O)*)N1

Format in all cases: binding
One assay addresses T1, TIP-1 (GST-TIP-1) (Homo sapiens, UniProt O14907, I73S).
T1 construct: made in house; host or cells: E. coli DH5alpha
T1 sequence (O14907 3-123 I73S): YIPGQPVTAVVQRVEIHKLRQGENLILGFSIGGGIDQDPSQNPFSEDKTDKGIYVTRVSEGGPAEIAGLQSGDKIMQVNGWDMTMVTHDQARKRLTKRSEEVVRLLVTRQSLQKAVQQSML
The experiment in a line: G assay with unlabeled 8 amino acid competitor peptide (Example 4, FIGS. 2B, 2C). Here is the method:
FIGS. 2A, 2B and 2C show binding and competition assays with the PDZ ligands of CD95 (Fas) and Tax for the PDZ domain of TIP-1.
Upon infection, the higher affinity of Tax could preferentially bind TIP-1 protein available in the cell, removing the TIP-1 bound to CD95 (Fas) and thereby rendering the cell less able to undergo apoptosis. In order to test this, competition experiments between Tax and CD95 for TIP-1 binding were performed using the ‘G Assay’, but adding additional unlabeled competitor peptide at step 9 of the ‘G Assay’ presented in EXAMPLE 3 section D.
FIGS. 2B and 2C show the results of these experiments. The graphs show the amount of binding of the biotinylated 20 amino acid peptide in the presence of increasing concentrations of unlabeled 8 amino acid competitor.

Assay [1] concerns the target T2, PDZ protein (GST-PDZ fusion) (Homo sapiens, UniProt Q8TDM6).
T2 construct: made in house; host or cells: E. coli (DH5alpha, BL21 or JM109)
Nature of the assay: G' assay (10 uM PL peptide), results of TABLE 7 and TABLE 12. The following applies: PDZ DLG5, PDZ Domain 2. In a few lines:
(§1)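 Biotin-PL peptide (N-term label), 10 uM vs GST-PDZ; protein 5 ug/ml by default. A450 nm binned: 1 = 0-1, 2 = 1-2, 3 = 2-3, 4 = 3-4, 5 = >4 on >2 repeats, 0 = no binding.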

Assay [2] addresses T3, PDZ protein (GST-PDZ fusion) (Homo sapiens, UniProt Q9H6Y5).
T3 construct: made in house; host or cells: E. coli (DH5alpha, BL21 or JM109)
T3 sequence (Q9H6Y5 1-334): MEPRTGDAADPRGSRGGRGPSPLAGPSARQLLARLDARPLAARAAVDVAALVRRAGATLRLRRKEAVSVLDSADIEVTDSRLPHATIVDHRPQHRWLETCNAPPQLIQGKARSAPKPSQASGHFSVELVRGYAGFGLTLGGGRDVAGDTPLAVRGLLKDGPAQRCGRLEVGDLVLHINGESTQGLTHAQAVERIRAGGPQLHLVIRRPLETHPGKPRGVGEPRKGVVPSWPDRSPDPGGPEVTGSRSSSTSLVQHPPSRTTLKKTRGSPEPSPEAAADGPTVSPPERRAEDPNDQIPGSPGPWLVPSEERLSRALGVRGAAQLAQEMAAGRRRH
Described as above. The conditions noted are these: PDZ FLJ21687, PDZ Domain 1. Summed up: as §1

Assay [3] has as its target T4, PDZ protein (GST-PDZ fusion) (Homo sapiens, UniProt Q86UR5).
T4 construct: made in house; host or cells: E. coli (DH5alpha, BL21 or JM109)
The description is as above. The following applies: PDZ KIAA0340, PDZ Domain 1. In a few lines: as §1

Assay [4] addresses T5, PDZ protein (GST-PDZ fusion) (Homo sapiens, UniProt Q9Y566).
T5 construct: made in house; host or cells: E. coli (DH5alpha, BL21 or JM109)
The description is as above. The conditions noted are these: PDZ SHANK1, PDZ Domain 1. Summed up: as §1

The target in the next assay is T6, Mint 1 (PDZ Domain 1, 2) (Homo sapiens, UniProt Q02410).
T6 construct: When more than one PDZ domain was cloned, the DNA portion cloned represents the PDZ domains and the cDNA portion located between individual domains; made in house; host or cells: E. coli (DH5alpha, BL21 or JM109)
T6 sequence (Q02410 652-828 limits assumed): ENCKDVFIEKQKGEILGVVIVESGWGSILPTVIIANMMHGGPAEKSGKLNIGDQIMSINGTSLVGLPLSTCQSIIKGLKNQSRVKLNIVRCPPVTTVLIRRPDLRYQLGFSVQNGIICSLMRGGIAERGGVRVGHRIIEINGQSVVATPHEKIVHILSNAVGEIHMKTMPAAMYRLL
The experiment in a line: G' assay, TABLE 12. The following applies: A450 nm class of biotinylated PL peptide bound; 0 in conc columns = peptide 10 uM, protein 5 ug/ml. Summed up: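 PL peptide binding to PDZ domain protein, peptide at 10 uM; protein at 5 ug/ml unless another concentration is listed for Kd determination. Bound peptide read at A450 nm and binned into classes 0–5.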

The target of assay [5] is T7, PDZ protein (GST-PDZ fusion) (Homo sapiens, UniProt Q8IVF5).
T7 construct: made in house; host or cells: E. coli (DH5alpha, BL21 or JM109)
Nature of the assay: G' assay (10 uM PL peptide), results of TABLE 7 and TABLE 12. The following applies: PDZ TIAM-2, PDZ Domain 1. Summed up:
as §1

Assay [6] addresses T8, PDZ protein (GST-PDZ fusion) (Homo sapiens, UniProt Q8N3R9).
T8 construct: made in house; host or cells: E. coli (DH5alpha, BL21 or JM109)
Described as above. The conditions noted are these: PDZ FLJ 12615 (PALS-1), PDZ Domain 1. Summed up: as §1

T5 sequence (Q9Y566 whole entry, the tested form may be a part): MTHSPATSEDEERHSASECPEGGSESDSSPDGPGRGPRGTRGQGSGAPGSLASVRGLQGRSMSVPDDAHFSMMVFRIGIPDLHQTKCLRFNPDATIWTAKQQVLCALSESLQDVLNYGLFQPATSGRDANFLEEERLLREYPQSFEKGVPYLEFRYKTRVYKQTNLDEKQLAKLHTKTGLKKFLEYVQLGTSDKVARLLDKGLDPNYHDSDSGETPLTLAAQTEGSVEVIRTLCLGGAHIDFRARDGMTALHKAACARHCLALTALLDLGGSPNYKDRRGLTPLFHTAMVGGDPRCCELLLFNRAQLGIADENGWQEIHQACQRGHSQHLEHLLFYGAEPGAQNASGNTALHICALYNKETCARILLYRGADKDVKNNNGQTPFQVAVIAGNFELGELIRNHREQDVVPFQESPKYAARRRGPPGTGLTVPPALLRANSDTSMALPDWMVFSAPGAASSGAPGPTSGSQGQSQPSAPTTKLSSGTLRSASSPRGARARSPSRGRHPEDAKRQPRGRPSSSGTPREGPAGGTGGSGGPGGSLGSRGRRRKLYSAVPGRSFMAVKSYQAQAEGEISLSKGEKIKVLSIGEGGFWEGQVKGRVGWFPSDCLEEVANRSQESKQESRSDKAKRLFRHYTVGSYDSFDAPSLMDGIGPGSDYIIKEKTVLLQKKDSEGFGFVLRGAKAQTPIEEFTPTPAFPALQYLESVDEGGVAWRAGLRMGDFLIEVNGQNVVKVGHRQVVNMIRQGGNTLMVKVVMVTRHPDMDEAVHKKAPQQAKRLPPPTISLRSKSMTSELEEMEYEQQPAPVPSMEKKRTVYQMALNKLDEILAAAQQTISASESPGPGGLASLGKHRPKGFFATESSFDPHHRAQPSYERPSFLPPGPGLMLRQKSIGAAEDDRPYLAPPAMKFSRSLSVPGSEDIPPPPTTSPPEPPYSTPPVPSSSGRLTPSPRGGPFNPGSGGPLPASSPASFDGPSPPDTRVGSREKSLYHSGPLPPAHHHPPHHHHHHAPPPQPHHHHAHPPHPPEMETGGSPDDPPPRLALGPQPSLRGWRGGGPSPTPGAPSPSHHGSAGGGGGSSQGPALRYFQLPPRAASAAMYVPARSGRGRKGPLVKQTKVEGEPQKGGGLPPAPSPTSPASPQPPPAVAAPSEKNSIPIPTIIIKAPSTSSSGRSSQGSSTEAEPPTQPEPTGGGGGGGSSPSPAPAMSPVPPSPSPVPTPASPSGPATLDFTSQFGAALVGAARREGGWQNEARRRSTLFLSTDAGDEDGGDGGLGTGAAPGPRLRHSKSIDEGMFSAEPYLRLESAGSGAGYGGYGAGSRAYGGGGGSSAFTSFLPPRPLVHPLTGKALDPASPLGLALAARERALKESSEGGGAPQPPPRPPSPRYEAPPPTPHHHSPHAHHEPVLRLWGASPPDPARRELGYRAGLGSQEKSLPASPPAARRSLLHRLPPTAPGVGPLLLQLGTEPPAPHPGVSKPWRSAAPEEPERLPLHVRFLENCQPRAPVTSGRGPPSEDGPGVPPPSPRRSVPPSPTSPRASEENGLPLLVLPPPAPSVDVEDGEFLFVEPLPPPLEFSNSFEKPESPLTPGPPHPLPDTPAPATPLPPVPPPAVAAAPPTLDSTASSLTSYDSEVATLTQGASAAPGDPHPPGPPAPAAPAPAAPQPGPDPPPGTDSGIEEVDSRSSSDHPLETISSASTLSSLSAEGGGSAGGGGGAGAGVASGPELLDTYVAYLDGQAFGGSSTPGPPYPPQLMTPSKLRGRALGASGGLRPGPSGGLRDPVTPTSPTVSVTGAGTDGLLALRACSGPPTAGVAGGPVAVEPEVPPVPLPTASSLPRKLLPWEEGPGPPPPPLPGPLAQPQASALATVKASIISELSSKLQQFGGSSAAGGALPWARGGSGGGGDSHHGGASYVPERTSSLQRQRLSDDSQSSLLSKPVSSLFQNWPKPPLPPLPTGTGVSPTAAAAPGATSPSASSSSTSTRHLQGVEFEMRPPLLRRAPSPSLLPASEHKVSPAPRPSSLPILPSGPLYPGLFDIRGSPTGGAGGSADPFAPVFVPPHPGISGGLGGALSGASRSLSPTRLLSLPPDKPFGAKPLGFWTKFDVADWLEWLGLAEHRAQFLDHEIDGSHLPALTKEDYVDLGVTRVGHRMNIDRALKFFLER
T8 sequence (Q8N3R9 whole entry, the tested form may be a part): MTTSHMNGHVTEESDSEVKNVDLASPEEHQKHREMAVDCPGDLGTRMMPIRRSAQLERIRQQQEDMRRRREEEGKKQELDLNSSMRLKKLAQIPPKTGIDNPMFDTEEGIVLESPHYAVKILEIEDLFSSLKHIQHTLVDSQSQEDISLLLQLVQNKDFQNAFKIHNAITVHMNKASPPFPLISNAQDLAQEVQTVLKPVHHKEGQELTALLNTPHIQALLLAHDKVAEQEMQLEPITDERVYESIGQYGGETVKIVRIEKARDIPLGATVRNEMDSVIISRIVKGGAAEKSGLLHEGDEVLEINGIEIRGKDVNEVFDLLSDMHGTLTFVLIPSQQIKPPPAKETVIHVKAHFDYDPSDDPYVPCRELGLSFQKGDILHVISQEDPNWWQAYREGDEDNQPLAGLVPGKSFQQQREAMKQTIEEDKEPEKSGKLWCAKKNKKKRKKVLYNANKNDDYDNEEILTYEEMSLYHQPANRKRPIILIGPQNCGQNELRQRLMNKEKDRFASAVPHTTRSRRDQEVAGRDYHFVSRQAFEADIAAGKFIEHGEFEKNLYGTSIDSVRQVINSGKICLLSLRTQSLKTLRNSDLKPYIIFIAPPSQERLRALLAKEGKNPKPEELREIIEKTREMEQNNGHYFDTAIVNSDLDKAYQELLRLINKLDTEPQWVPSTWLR
T2 sequence (Q8TDM6 whole entry, the tested form may be a part): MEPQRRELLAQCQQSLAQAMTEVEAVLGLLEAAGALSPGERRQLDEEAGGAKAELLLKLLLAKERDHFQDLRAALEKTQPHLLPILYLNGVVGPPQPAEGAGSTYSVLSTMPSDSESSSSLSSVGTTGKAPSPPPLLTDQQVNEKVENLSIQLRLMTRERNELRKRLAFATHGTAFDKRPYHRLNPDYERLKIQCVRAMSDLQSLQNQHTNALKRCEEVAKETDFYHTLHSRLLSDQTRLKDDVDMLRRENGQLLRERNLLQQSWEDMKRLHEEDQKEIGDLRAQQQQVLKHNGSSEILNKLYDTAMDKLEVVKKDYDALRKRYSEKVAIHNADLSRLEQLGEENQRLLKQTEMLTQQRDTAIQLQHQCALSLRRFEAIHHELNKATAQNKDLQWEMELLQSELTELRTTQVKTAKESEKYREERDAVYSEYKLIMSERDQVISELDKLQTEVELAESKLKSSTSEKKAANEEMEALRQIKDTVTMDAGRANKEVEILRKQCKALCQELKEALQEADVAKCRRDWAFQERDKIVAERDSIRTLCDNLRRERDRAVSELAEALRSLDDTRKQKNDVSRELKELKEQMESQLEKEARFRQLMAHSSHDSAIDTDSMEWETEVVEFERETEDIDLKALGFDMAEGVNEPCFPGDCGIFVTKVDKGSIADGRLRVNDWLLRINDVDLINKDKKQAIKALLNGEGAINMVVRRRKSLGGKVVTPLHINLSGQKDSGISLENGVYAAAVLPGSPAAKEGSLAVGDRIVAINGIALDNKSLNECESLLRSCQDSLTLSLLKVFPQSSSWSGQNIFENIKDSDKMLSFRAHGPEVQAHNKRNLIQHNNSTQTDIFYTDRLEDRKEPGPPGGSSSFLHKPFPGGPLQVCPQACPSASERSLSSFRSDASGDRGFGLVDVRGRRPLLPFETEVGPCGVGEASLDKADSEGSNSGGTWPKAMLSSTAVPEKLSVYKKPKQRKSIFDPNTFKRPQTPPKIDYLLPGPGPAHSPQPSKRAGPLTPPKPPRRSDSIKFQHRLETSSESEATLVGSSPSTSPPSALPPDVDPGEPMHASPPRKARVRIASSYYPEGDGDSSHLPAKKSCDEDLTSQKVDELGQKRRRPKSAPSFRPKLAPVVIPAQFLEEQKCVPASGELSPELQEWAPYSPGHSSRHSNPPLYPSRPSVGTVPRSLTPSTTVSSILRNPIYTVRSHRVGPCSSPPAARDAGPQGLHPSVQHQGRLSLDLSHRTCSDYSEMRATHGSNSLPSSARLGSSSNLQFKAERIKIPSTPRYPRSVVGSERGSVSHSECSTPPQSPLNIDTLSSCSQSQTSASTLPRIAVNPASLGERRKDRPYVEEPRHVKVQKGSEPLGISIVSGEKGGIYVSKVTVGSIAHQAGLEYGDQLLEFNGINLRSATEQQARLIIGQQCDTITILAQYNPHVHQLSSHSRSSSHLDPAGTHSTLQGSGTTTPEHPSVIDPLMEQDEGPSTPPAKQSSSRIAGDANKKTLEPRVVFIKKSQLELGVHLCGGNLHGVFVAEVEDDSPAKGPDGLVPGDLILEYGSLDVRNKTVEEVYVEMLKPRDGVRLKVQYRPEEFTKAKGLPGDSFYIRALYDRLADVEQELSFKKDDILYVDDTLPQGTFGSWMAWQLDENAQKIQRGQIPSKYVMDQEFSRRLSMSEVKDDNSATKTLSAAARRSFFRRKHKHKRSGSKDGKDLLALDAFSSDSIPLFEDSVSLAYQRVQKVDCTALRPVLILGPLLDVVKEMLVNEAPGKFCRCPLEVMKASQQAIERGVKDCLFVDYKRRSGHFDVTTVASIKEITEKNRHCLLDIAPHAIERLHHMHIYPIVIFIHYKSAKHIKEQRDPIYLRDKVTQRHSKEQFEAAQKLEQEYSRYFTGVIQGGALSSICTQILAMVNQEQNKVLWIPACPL

`CC[C@H](C)[C@H](NC(=O)[C@H](CCC(N)=O)NC(=O)CCCC[C@@H]1SC[C@@H]2NC(=O)N[C@@H]21)C(=O)N[C@@H](CO)C(=O)N1CCC[C@H]1C(=O)NCC(=O)NCC(=O)N[C@@H](CC(C)C)C(=O)N[C@@H](CCC(=O)O)C(=O)N1CCC[C@H]1C(=O)N1CCC[C@H]1C(=O)N[C@@H](CO)C(=O)N[C@@H](CCC(=O)O)C(=O)N[C@@H](CCCCN)C(=O)N[C@@H](Cc1c[nH]cn1)C(=O)N[C@@H](Cc1ccccc1)C(=O)N[C@@H](CCCNC(=N)N)C(=O)N[C@@H](CCC(=O)O)C(=O)N[C@H](C(=O)N[C@@H](CCC(=O)O)C(=O)N[C@H](C(=O)O)C(C)C)[C@@H](C)O` [Tax]: at TIP-1 (GST-TIP-1) (unlabeled 8 amino acid Tax competitor at 20, 100, and 500 μM, 20 μM labeled CD95 20-mer), the “competition for binding to TIP-1 with labeled CD95 (FIG. 2B)” value is “able to compete”. In addition, the “excess able to compete effectively for TIP-1 binding” value on TIP-1 (GST-TIP-1) (unlabeled Tax 8-mer versus labeled CD95) is recorded as 5 fold.
Take “A2AA_HUMAN (modified) (Biotin-HDFRRAFKKILARGDRKRIV; not fully specified)”: the Classification in assay [1], in assay [2] and in assay [3] was 1 (A450 nm 0-1) in each case.
Regarding `CC[C@H](C)[C@H](NC(=O)[C@H](CC(=O)O)NC(=O)[C@H](CCC(=O)O)NC(=O)[C@H](CCCNC(=N)N)NC(=O)[C@@H](NC(=O)CCCC[C@@H]1SC[C@@H]2NC(=O)N[C@@H]21)[C@@H](C)O)C(=O)N[C@@H](Cc1ccc(O)cc1)C(=O)N[C@H](C(=O)N[C@@H](CC(N)=O)C(=O)N[C@@H](Cc1ccc(O)cc1)C(=O)N1CCC[C@H]1C(=O)N[C@H](C(=O)N[C@@H](Cc1ccccc1)C(=O)N[C@@H](CO)C(=O)N[C@@H](CCCNC(=N)N)C(=O)N[C@@H](CCCNC(=N)N)C(=O)N1CCC[C@H]1C(=O)N[C@@H](CCCCN)C(=O)N[C@H](C(=O)N[C@@H](CCCNC(=N)N)C(=O)N[C@H](C(=O)O)C(C)C)[C@@H](C)O)[C@@H](C)O)C(C)C` [DNAM-1] (Biotin-TREDIYVNYPTFSRRPKTRV-OH; C-terminus assumed), the Classification in assay [4] is 5 (A450 nm of 4 more than 2× repeated).
With `CC(C)C[C@H](NC(=O)[C@H](C)NC(=O)[C@@H](NC(=O)[C@@H](NC(=O)[C@H](Cc1c[nH]cn1)NC(=O)[C@H](CC(C)C)NC(=O)CNC(=O)[C@H](CCC(N)=O)NC(=O)CNC(=O)CNC(=O)[C@H](C)NC(=O)[C@H](C)NC(=O)[C@H](CCCNC(=N)N)NC(=O)[C@H](C)NC(=O)[C@H](CO)NC(=O)[C@H](CC(=O)O)NC(=O)[C@H](CC(=O)O)NC(=O)[C@H](Cc1c[nH]c2ccccc12)NC(=O)[C@H](C)NC(=O)CCCC[C@@H]1SC[C@@H]2NC(=O)N[C@@H]21)C(C)C)[C@@H](C)O)C(=O)O` [LPAP] (Biotin-AWDDSARAAGGQGLHVTAL-OH; C-terminus assumed), the Classification on Mint 1 (PDZ Domain 1, 2) was 1 (A450 nm 0-1).
For the compound “ELLQFCRTPNPALKNGQYWV (Biotin-ELLQFCRTPNPALKNGQYWV)”, the Classification in assay [5] is on record as 3 (A450 nm 2-3).
`CSCC[C@H](NC(=O)[C@H](C)NC(=O)[C@H](CCCNC(=N)N)NC(=O)CNC(=O)[C@@H](NC(=O)[C@H](Cc1c[nH]c2ccccc12)NC(=O)[C@H](CCCNC(=N)N)NC(=O)CNC(=O)CCCC[C@@H]1SC[C@@H]2NC(=O)N[C@@H]21)[C@@H](C)O)C(=O)N[C@@H](CO)C(=O)N[C@@H](C)C(=O)N[C@@H](Cc1c[nH]c2ccccc12)C(=O)N[C@@H](CCCCN)C(=O)N1CCC[C@H]1C(=O)N[C@H](C(=O)N[C@@H](CCCNC(=N)N)C(=O)N[C@@H](CCCNC(=N)N)C(=O)N[C@@H](CCC(=O)O)C(=O)N[C@H](C(=O)N[C@@H](CCC(=O)O)C(=O)N[C@H](C(=O)O)C(C)C)[C@@H](C)O)[C@@H](C)O` [HPV E6 #35 (modified)] (Biotin-GRWTGRAMSAWKPTRRETEV-OH; C-terminus assumed): in assay [6], the Classification is 1 (A450 nm 0-1).
